Measurements from patent EP4781986A1, “PHARMACEUTICAL COMPOSITION HAVING IMPROVED PHARMACOKINETIC PROPERTIES” (Sichuan Purity Pharmaceutical Co., Ltd., priority 2023, dated 2025).
Where two headings read alike, the source gives them in different places. Each block holds one compound with its values, some of them ahead of it.

Legend:
[1] = stability test in liver microsomes (monkey); assay type: in vitro ADME; settings: Monkey liver microsomes
Method: (§1) The stability of the compound of the present invention in liver microsomes of rat, monkey and human was determined. Tested compounds of the present invention were the compounds in Examples 6 and 8 , and a control drug was Zavegepant.
(§2) 3.2 An appropriate amount of liver microsome solution was transferred into a 1 mL 96-deep-well plate, added with a tested drug liquid (or a probe substrate solution), and pre-incubated in a thermal mixer at 37°C for 5 minutes. Two parts of mixed solutions were taken out from the system and added with 1×PBS to replace NADPH, and the mixed solutions were taken out at 0 and 60 minutes respectively, and added with methanol (containing an internal standard) to terminate the reaction. In the remaining mixed system, each well was added with NADPH to start the reaction. In the tested substance group, mixed solutions were taken out from the system at 0, 5, 15, 30, 45 and 60 minutes, and in the control group, mixed solutions were taken out from the system at 0, 30 and 60 minutes, and the mixed solutions were added methanol (containing an internal standard) to terminate the reaction. All samples of the terminated reaction were mixed evenly and centrifuged in a centrifuge at 3800 rpm for 15 minutes, and the supernatant was taken for LC-MS/MS analysis.
(§3) A peak area was determined by an extracted ion chromatogram. A slope value k was determined by linear regression of a remaining percentage of a parent drug relative to a natural logarithm of an incubation time curve. According to the slope, in-vitro half-life periods (t1/2) were respectively calculated, and in-vitro intrinsic clearance rates (CLint, represented by µL/min/mg protein) were calculated. Calculation formulas were as follows: t1/2 = ln2/k = 0.693/k; and CLint = 0.693/t1/2 /liver microsome protein concentration [formula]

[2] = stability test in liver microsomes (human); assay type: in vitro ADME; settings: Human liver microsomes, 60 min
Method: as §1, §2, §3

Plasma of SD rat = assay: plasma protein binding rate test, equilibrium dialysis (rat); assay type: in vitro ADME; settings: 1 µM, 37°C, 6 hours
Method: (§4) Protein binding rates of the compound of the present invention in plasma of rat, monkey and human were determined by an equilibrium dialysis method. Tested compounds of the present invention were the compounds in Examples 6 and 8.
(§5) 3.1 A dry dialysis membrane was rinsed with ultrapure water for 2-3 times, and then soaked in a phosphate buffer for 1 hour for later use. Polytetrafluoroethylene module was soaked in 20% ethanol for 30 minutes, and then surface moisture was dried with dust-free paper for later use. The pretreated dialysis membrane was assembled into a dialysis plate according to the product specification, and one side (receptor compartment) of an osmotic membrane in each dialysis well was added with 100 µL of receptor fluid (100 mM phosphate buffer solution plus 0.002% Tween 80).
(§6) 3.2 The plasma was put into a centrifuge tube, a working solution of a tested substance was added into the plasma, wherein a final concentration was 1 µM, and the mixture was turned upside down and mixed evenly (this step was carried out in ice bath). 20 µL of drug-containing plasma each was taken, and was respectively transferred to a 96-well sample plate according to two parts in parallel, and stored in a refrigerator at -20°C as a T0 sample.
(§7) 3.3 Another 100 µL of the above drug-containing plasma was transferred to the other side (sample compartment) of the membrane in the dialysis device according to two parts in parallel, and incubated under vibration at a constant temperature of 37°C for 6 hours. […]
(§8) A plasma protein binding rate and a recovery rate of the compound in plasma were calculated by the following formulas: dissociation percentage (%) = CB /CA; [formula] plasma protein binding rate (fb%) = 1−dissociation percentage (%); [formula] recovery rate (%) = (CB+CA)/CT0 [formula] wherein CB was a concentration of the compound in the receptor fluid after equilibrium dialysis; CA was a concentration of the compound in the drug-containing plasma after equilibrium dialysis; and CT0 was an initial concentration of the compound in plasma.

[3] = PK properties in monkeys with or without alkyl glycoside, intravenous route and nasal spray; assay type: in vivo, cynomolgus monkey; settings: for AUC / bioavailability / Cmax / half-life / Tmax / Vd: cynomolgus monkey, plasma; for AUC: read-out: Area under curve AUC; for bioavailability: read-out: Bioavailability F%; for Cmax: read-out: Concentration to peak Cmax; for half-life: read-out: Half-life period t1/2 (converted); for Tmax: read-out: Time to peak Tmax; for Vd: read-out: Volume of distribution steady-state Vss; for Tmax(DDM 0.2%)/ Tmax(DDM 0%) / onset time (Tmax) shortened by: monkeys, intranasal; for Tmax(DDM 0.2%)/ Tmax(DDM 0%): 0.2% DDM vs without DDM; for onset time (Tmax) shortened by: with vs without alkyl glycoside
Method: Species: cynomolgus monkey, male, 2-5 kg. Source: Ankai Yibo (Zhanjiang) Biotechnology Co., Ltd., Laboratory Animal Production License No.: SCXK (Yue) 2019-0046. Quantity: 3 cynomolgus monkeys were intravenously administered and 3 cynomolgus monkeys were administered by a nasal spray.
2.1 An appropriate amount of drug was accurately weighed and added with 50 mM succinate buffer (diluted with D5W, pH=5-6), and mixed evenly and dissolved fully in an ultrasonic and vortexed mode to obtain a 0.5 mg/mL drug solution for intravenous administration.
(§9) 2.2 An appropriate amount of drug was accurately weighed and added with a solvent 1: 50 mM succinate buffer (diluted with pure water, pH=5-6), and mixed evenly and dissolved fully in an ultrasonic and vortexed mode to obtain a 20 mg/mL drug solution, which was put into a nasal spraying device for administration by the nasal spray, 100 µL/spray.
as §9, with “2.3” for “2.2”, “2:” for “1:”, “(pH=5-6) containing 0.2% dodecyl-β-D-maltoside,” for “(diluted with pure water, pH=5-6),”
5 minutes, 10 minutes, 15 minutes, 0.5 hour, 1 hour, 2 hours, 4 hours, 6 hours, 8 hours, 10 hours, 12 hours and 24 hours after administration.
Blood was collected through a saphenous vein or a cephalic vein, about 0.6 mL of each sample was collected, EDTA-K2 was used for anticoagulation, the collected blood sample was placed on ice, and plasma was centrifugally separated within 2 hours (at 2000 g and 2-8°C for 10 minutes). The collected plasma samples were stored in a refrigerator at -80°C before analysis, and the remaining plasma samples after analysis were continuously stored in the refrigerator at -80°C for temporary storage.
A concentration of a specified compound in plasma was determined by LC-MS/MS, and main pharmacokinetic parameters were calculated by a Winnolin 8.3 non-compartmental model. When the pharmacokinetic parameters were calculated, BLQ before Cmax (comprising "No peak") was calculated as 0; and BLQ (comprising "No peak") after Cmax was excluded from the calculation.

Plasma of human = assay: plasma protein binding rate test, equilibrium dialysis (human); assay type: in vitro ADME; settings: 1 µM, 37°C, 6 hours
Method: as §4, §5, §6, §7, §8

[4] = 1 mg/kg, cynomolgus monkeys, IN@1 mg/kg (Solvent 1, no DDM)
[5] = 1 mg/kg, cynomolgus monkeys, IN@1 mg/kg (Solvent 2, 0.2% dodecyl-β-D-maltoside)
[6] = iv, 0.5 mg/kg, cynomolgus monkeys, IV@0.5 mg/kg
[7] = cynomolgus monkeys, IV@0.5 mg/kg
[8] = male, other: intranasal (nasal spray), 1 mg/kg, cynomolgus monkeys, IN@1 mg/kg (Solvent 1, no DDM)
[9] = male, other: intranasal (nasal spray), 1 mg/kg, cynomolgus monkeys, IN@1 mg/kg (Solvent 2, 0.2% dodecyl-β-D-maltoside)
[10] = male, other: intranasal (nasal spray), cynomolgus monkeys, IN@1 mg/kg (Solvent 2, 0.2% dodecyl-β-D-maltoside)
[11] = male, other: nasal spray (intranasal), cynomolgus monkeys, IN@1 mg/kg (Solvent 1, no DDM)
[12] = male, cynomolgus monkeys, IV@0.5 mg/kg

Compound: Cc1cc(C[C@@H](NC(=O)N2CCC(c3cc4c([nH]c3=O)SCCC4)CC2)C(=O)N2CCN(C3CCN(C)CC3)CC2)cc2cn[nH]c12 [Example 6, (R)-N-(3-(7-methyl-1H-indazole-5-yl)-1-(4-(1-methylpiperidine-4-yl)piperazine-1-yl)-1-oxopropan-2-yl)-4-(7-oxo-3,4,7,8-tetrahydro-2H-thiopyrano[2,3-b]pyridine-6-yl)piperidine-1-formamide]
CLint [1]: 0.8 µL/min/mg | % remaining (60 min) [1]: 96.9% | % remaining (60 min) [2]: 131% | fb (%) (Plasma of SD rat): 90.0% | AUC [3, 4]: 43.2 ng·h/mL | bioavailability [3, 4]: 1.99% | Cmax [3, 4]: 12.7 ng/mL | half-life [3, 4]: 9 h | Tmax [3, 4]: 1 h | AUC [3, 5]: 780 ng·h/mL | bioavailability [3, 5]: 29.8% | Cmax [3, 5]: 663 ng/mL | half-life [3, 5]: 5.57 h | Tmax [3, 5]: ~0.17 h | AUC [3, 6]: 1140 ng·h/mL | Cmax [3, 6]: 3200 ng/mL | half-life [3, 6]: 4.98 h | Vd [3, 7]: 0.652 L/kg | Tmax(DDM 0.2%)/ Tmax(DDM 0%) [3]: 16.7% | onset time (Tmax) shortened by [3]: 83.3% | fb (%) (Plasma of human): 76.7%

% remaining (60 min) [1]: 61.6% | % remaining (60 min) [2]: 85.8% | fb (%) (Plasma of SD rat): 69.4% | Apparent clearance CL [3, 7]: 9.27 mL/min/kg | bioavailability [3, 8]: 2.5% | Tmax [3, 8]: 1 h | bioavailability [3, 9]: 26.4% | Tmax [3, 9]: ~0.17 h | AUC [3, 10]: 412 ng·h/mL | Cmax [3, 10]: 401 ng/mL | half-life [3, 10]: 4.92 h | AUC [3, 11]: 46.1 ng·h/mL | Cmax [3, 11]: 13.4 ng/mL | half-life [3, 11]: 5.58 h | AUC [3, 12]: 924 ng·h/mL | Cmax [3, 12]: 2280 ng/mL | half-life [3, 12]: 4.98 h | Vd [3, 12]: 0.738 L/kg | Tmax(DDM 0.2%)/ Tmax(DDM 0%) [3]: 16.7% | onset time (Tmax) shortened by [3]: 83.3% | fb (%) (Plasma of human): 64.1%
Compound: Cc1cc(C[C@@H](NC(=O)N2CCC(c3cc4c([nH]c3=O)SCC4)CC2)C(=O)N2CCN(C3CCN(C)CC3)CC2)cc2cn[nH]c12 [Example 8, (R)-N-(3-(7-methyl-1H-indazole-5-yl)-1-(4-(1-methylpiperidine-4-yl)piperazine-1-yl)-1-oxopropan-2-yl)-4-(6-oxo-2,3,6,7-tetrahydrothieno[2,3-b]pyridine-5-yl)piperidine-1-formamide]
